Here are results for 21 molecules from patent publication US9133230B2, “Hydrazone derivatives having potent antitumor activity toward multi-drug resistant tumor cells” (THE UNITED STATES OF AMERICA AS REPRESENTED BY THE …, priority 2011, dated 2015).

Where only a bound is given, the exact number is not on record here.

Series [1] concerns human myelogenous leukemia K562. The series is described as follows: MTS cytotoxicity assay, K562. The class given is cell-based. Here is the method: (§1) In order to obtain information about the growth-inhibiting action of hydrazones reported in the present invention on tumor cells, growth inhibition was assessed for the following human tumor cell lines: human myelogenous leukemia K562, human cervical adenocarcinoma HeLa, human colon adenocarcinoma Caco-2, human colon carcinoma HT-29, human colon carcinoma HCT-15, and human breast carcinoma MCF-7.
(§2) The K562, HeLa, HT-29, HCT-15, Caco-2, and MCF-7 cell lines were obtained from the American type Culture Collection (ATCC, Manassas, Va.). K562 cells were maintained in RPMI 1640 medium (Gibco/Life Technologies, Gaithersburg, Md.) containing 10% heat-inactivated fetal bovine serum (FBS) (Atlanta Biologicals, Atlanta, Ga.) and 10000 U/L penicillin and 50 mg/L streptomycin. HeLa, HT-29, HCT-15, Caco-2 and MCF-7 cells were maintained in MEM with Earl's balanced salts, 10% FBS, penicillin, and streptomycin as above. Logarithmically growing HT-29, Caco-2, and MCF-7 cells were incubated with 0.05% trypsin containing 1 mM EDTA at 37° C. for about 5 min until cells were nonadherent and formed a single cell suspension. Trypsin activity was neutralized by adding 20-fold excess of the serum-containing medium. Cells were cultured at 37° C. in an atmosphere of air and 5% CO2.
(§3) Cytotoxicity assays were conducted by tetrazolium reduction of 3-(4,5-dimethylthiazol-2-yl)-5-(3-carboxymethoxyphenyl)-2-(4-sulfophenyl)-2H-tetrazolium (MTS) with N-methylphenazonium methyl sulfate (PMS) (CellTiter Assay, Promega, Madison, Wis.). Logarithmically growing cells were plated in 0.1 mL aliquots in 96-well microtiter plates. Cells were plated at an initial density of about 5000 cells/mL and allowed to acclimatize for 24 h. Cell suspensions were treated with various dilutions of compounds in triplicate, mixed well, and allowed to incubate for 48 h at 37° C. in an atmosphere of air and 5% CO2. To the cell suspension was added 20 μL of tetrazolium reagent, the mixture was incubated for 2 h at 37° C. in an atmosphere of air and 5% CO2, and absorbance at 490 nm was read by microplate reader. Control plates with serial dilutions of cell types were counted as a control for the assay. In all cases, controls indicated a linear response versus cell number, R^2≧0.99.

Series [2] concerns human cervical adenocarcinoma HeLa. The series is described as follows: MTS cytotoxicity assay, HeLa. The class given is cell-based. Conditions: 48 h incubation. The method, then:
as §1, §2, §3
A general note: Formazan colour is commonly taken as a measure of viable cells.

The test system of series [3] is human colon adenocarcinoma Caco-2. The experiment in a line: MTS cytotoxicity assay, Caco-2. Format: cell-based. The method, then: as §1, §2, §3
Series [4] has as its system human colon carcinoma HT-29. The series is described as follows: MTS cytotoxicity assay, HT-29. Format: cell-based. The method, then: as §1, §2, §3
Series [5] relates to human breast carcinoma MCF-7. The experiment in a line: MTS cytotoxicity assay, MCF-7. The class given is cell-based. The method, then: as §1, §2, §3
Series [6] has as its system human colon carcinoma HCT-15. The series is described as follows: MTS cytotoxicity assay, HCT-15. Format: cell-based. The method, then:
as §1, §2, §3

Series [7] concerns HL60-VCR. Conditions: MDR cell line characterisation; cited from earlier work.
The mark [8] stands for this setting: Homo sapiens, K562, 48 h incubation.
[9] abbreviates: Homo sapiens, Caco-2, 48 h incubation.
Setting [10] is: Homo sapiens, HT-29, 48 h incubation.
Where [11] appears, read: Homo sapiens, MCF7, 48 h incubation.
The mark [12] stands for this setting: Homo sapiens, HCT-15, 48 h incubation.

One may read the GI50 as the concentration giving 50% growth inhibition. For the molecule `OC[C@H]1OC(n2cnc3c(NN=Cc4ccncc4)ncnc32)[C@H](O)[C@@H]1O` (stereo partly drawn) [I-11], the GI50 in series [1] (48 h incubation) was found to be 58 µM; in series [2] it was 56 µM; in series [3] (48 h incubation), 11 µM; in series [4] (48 h incubation), 79 µM; in series [5] (48 h incubation), 70 µM; in series [6] (48 h incubation) it was 71 µM.
Turning to `OC[C@H]1OC(n2cnc3c(NN=Cc4cccnc4)ncnc32)[C@H](O)[C@@H]1O` (stereo partly drawn) [I-10], the GI50 came to 22 µM in series [1] (48 h incubation); 18 µM in series [2]; 0.9 µM in series [3] (48 h incubation); 18 µM in series [4] (48 h incubation); 14 µM in series [5] (48 h incubation); 22 µM in series [6] (48 h incubation).
For `OC[C@H]1OC(n2cnc3c(NN=C(c4ccccn4)c4ccccn4)ncnc32)[C@H](O)[C@@H]1O` (stereo partly drawn) [I-13], the GI50 is 0.3 µM in series [1] (48 h incubation); 0.3 µM in series [2]; 0.2 µM in series [3] (48 h incubation); 0.8 µM in series [4] (48 h incubation); 0.9 µM in series [5] (48 h incubation); under 1 µM in series [6] (48 h incubation).
In the case of `CC(=NNc1ncnc2c1ncn2C1O[C@H](CO)[C@@](C)(O)[C@H]1O)c1ccccn1` (stereo partly drawn) [I-2, (2R,3S,4R)-2-(hydroxymethyl)-3-methyl-5-(6-(2-(1-(pyridin-2-yl)ethylidene)hydrazinyl)-9H-purin-9-yl)tetrahydrofuran-3,4-diol], the GI50 stood at 11 µM in series [1] (setting [8]); 21 µM in series [2] (Homo sapiens, HeLa); 23 µM in series [3] (setting [9]); 17.6 µM in series [4] (setting [10]); 13.5 µM in series [5] (setting [11]).
With `c1ccc(C(=NNc2ncnc3[nH]cnc23)c2ccccn2)nc1` [I-20, 6-(2-(Dipyridin-2-ylmethylene)hydrazinyl)-9H-purine], the GI50 in series [1] (setting [8]) worked out at 0.1 µM.
Turning to `C[C@@]1(O)[C@@H](CO)OC(n2cnc3c(NN=Cc4ccccn4)ncnc32)[C@@H]1O` (stereo partly drawn) [I-4], the GI50 in series [1] (48 h incubation) stood at 6.8 µM; in series [2] it was 7.6 µM; in series [3] (48 h incubation), 7.6 µM; in series [4] (48 h incubation), 27 µM; in series [5] (48 h incubation), 22 µM; in series [6] (48 h incubation) it was 3.9 µM.
Regarding `C[C@]1(O)C(O)[C@H](n2cnc3c(NN=C(c4ccccc4)c4ccccn4)ncnc32)O[C@@H]1CO` (stereo partly drawn) [I-1, (2R,3S,5R)-2-(hydroxymethyl)-3-methyl-5-(6-(2-(phenyl(pyridin-2-yl)methylene)hydrazinyl)-9H-purin-9-yl)tetrahydrofuran-3,4-diol], the GI50 in series [1] (setting [8]) was 48.1 µM; in series [2] (Homo sapiens, HeLa), 68.9 µM; in series [3] (setting [9]), 43.2 µM; in series [4] (setting [10]) it was 57.2 µM; in series [5] (setting [11]), over 100 µM.
As for `CC(=NNc1ncnc2c1ncn2C1O[C@H](CO)[C@@](C)(O)[C@H]1O)c1cccnc1` (stereo partly drawn) [I-3, (2R,3S,4R)-2-(hydroxymethyl)-3-methyl-5-(6-(2-(1-(pyridin-3-yl)ethylidene)hydrazinyl)-9H-purin-9-yl)tetrahydrofuran-3,4-diol], the GI50 stood at 12 µM in series [1] (setting [8]); 17 µM in series [2] (Homo sapiens, HeLa); 2.2 µM in series [3] (setting [9]); 15 µM in series [4] (setting [10]); 17 µM in series [5] (setting [11]); 11.2 µM in series [6] (setting [12]).
Turning to `Cc1ccc(C=NNc2ncnc3[nH]cnc23)s1` [I-21, 6-[2-((5-Methylthiophen-2-yl)methylene)hydrazinyl]-9H-purine], the GI50 in series [1] (setting [8]) came out at 11 µM; in series [2] (Homo sapiens, HeLa), 38 µM; in series [3] (setting [9]) it was 39 µM; in series [4] (setting [10]), 35 µM; in series [5] (setting [11]), 11 µM; in series [6] (setting [12]), 40 µM.
In the case of `CC[C@]1(O)C[C@H]2CN(CCc3c([nH]c4ccccc34)[C@@](C(=O)OC)(c3cc4c(cc3OC)N(C=O)[C@H]3[C@@](O)(C(=O)OC)[C@H](OC(C)=O)[C@]5(CC)C=CCN6CC[C@]43[C@@H]65)C2)C1` [vincristine], the “resistance expressed by HL60-VCR” value in series [7] was 1300 fold.
On to `CC(=NNc1ncnc2c1ncn2[C@@H]1O[C@H](CO)C(O)C1O)c1ccncc1` (stereo partly drawn) [I-8, (2R,5R)-2-(hydroxymethyl)-5-(6-(2-(1-(pyridin-4-yl)ethylidene)hydrazinyl)-9H-purin-9-yl)tetrahydrofuran-3,4-diol], for which the GI50 came to 56 µM in series [1] (setting [8]); 60 µM in series [2] (Homo sapiens, HeLa); 49.6 µM in series [3] (setting [9]); 213 µM in series [4] (setting [10]); 68 µM in series [5] (setting [11]).
Turning to `Cc1ccc(C=NNc2ncnc3c2ncn3C2O[C@H](CO)[C@@H](O)[C@H]2O)s1` (stereo partly drawn) [I-15, (2R,3S,4R)-2-(hydroxymethyl)-5-(6-(2-((5-methylthiophen-2-yl)methylene)hydrazinyl)-9H-purin-9-yl)tetrahydrofuran-3,4-diol], the GI50 in series [1] (setting [8]) was 19 µM; in series [2] (Homo sapiens, HeLa), 4.3 µM; in series [3] (setting [9]) it was 1.8 µM; in series [4] (setting [10]), 16 µM; in series [5] (setting [11]), 16 µM; in series [6] (setting [12]), 5 µM.
In the case of `CC(=NNc1ncnc2c1ncn2[C@@H]1O[C@H](CO)C(O)C1O)c1cccnc1` (stereo partly drawn) [I-7, (2R,5R)-2-(hydroxymethyl)-5-(6-(2-(1-(pyridin-3-yl)ethylidene)hydrazinyl)-9H-purin-9-yl)tetrahydrofuran-3,4-diol], the GI50 was determined as 45 µM in series [1] (setting [8]); 25 µM in series [2] (Homo sapiens, HeLa); 63.3 µM in series [3] (setting [9]); 144 µM in series [4] (setting [10]); 93 µM in series [5] (setting [11]).
Consider `OC[C@H]1O[C@@H](n2cnc3c(NN=C(c4ccccc4)c4ccccn4)ncnc32)C(O)C1O` (stereo partly drawn) [I-5, (2R,5R)-2-(hydroxymethyl)-5-(6-(2-(phenyl(pyridin-2-yl)methylene)hydrazinyl)-9H-purin-9-yl)tetrahydrofuran-3,4-diol], for which the GI50 in series [1] (setting [8]) came to 49 µM; in series [2] (Homo sapiens, HeLa) it was 36 µM; in series [3] (setting [9]) it was 64.5 µM; in series [4] (setting [10]) it was 52.5 µM; in series [5] (setting [11]), 44.9 µM.
On to `OC[C@H]1OC(n2cnc3c(NN=Cc4ccccc4)ncnc32)[C@H](O)[C@@H]1O` (stereo partly drawn) [I-16], for which the GI50 was 15 µM in series [1] (48 h incubation); 3 µM in series [2]; 7.6 µM in series [3] (48 h incubation); 13 µM in series [4] (48 h incubation); 10 µM in series [5] (48 h incubation); 5.5 µM in series [6] (48 h incubation).
Consider `CC(=NNc1ncnc2c1ncn2C1O[C@H](CO)[C@@H](O)[C@H]1O)c1ccccc1` (stereo partly drawn) [I-17, (2R,3S,4R)-2-(hydroxymethyl)-5-(6-(2-(1-phenylethylidene)hydrazinyl)-9H-purin-9-yl)tetrahydrofuran-3,4-diol], for which the GI50 is 5 µM in series [1] (setting [8]); 1.6 µM in series [2] (Homo sapiens, HeLa); 3.1 µM in series [3] (setting [9]); 2.6 µM in series [4] (setting [10]); 3.1 µM in series [5] (setting [11]); 4.6 µM in series [6] (setting [12]).
With `C(=NNc1ncnc2[nH]cnc12)c1ccc[nH]1` [I-22], the GI50 is 7.1 µM in series [1] (48 h incubation); 12 µM in series [2]; over 100 µM in series [3] (48 h incubation); 6.9 µM in series [4] (48 h incubation); 9.2 µM in series [5] (48 h incubation); 5.6 µM in series [6] (48 h incubation).
On to `CC(=NNc1ncnc2c1ncn2[C@@H]1O[C@H](CO)C(O)C1O)c1ccccn1` (stereo partly drawn) [I-6, (2R,5R)-2-(hydroxymethyl)-5-(6-(2-(1-(pyridin-2-yl)ethylidene)hydrazinyl)-9H-purin-9-yl)tetrahydrofuran-3,4-diol], for which the GI50 in series [1] (setting [8]) was 11 µM; in series [2] (Homo sapiens, HeLa) it was 12 µM; in series [3] (setting [9]) it was 14 µM; in series [4] (setting [10]) it was 38 µM; in series [5] (setting [11]), 15 µM.
As to `c1ccc(C(=NNc2ncnc3[nH]cnc23)c2ccccn2)cc1` [I-19, 6-(2-(Phenyl(pyridin-2-yl)methylene)hydrazinyl)-9H-purine], the GI50 in series [1] (setting [8]) is 0.9 µM; in series [2] (Homo sapiens, HeLa), 1.4 µM; in series [3] (setting [9]) it was 0.9 µM; in series [4] (setting [10]), 0.9 µM; in series [5] (setting [11]), 0.9 µM; in series [6] (setting [12]), under 1 µM.
For “6-(2-(Dipyridin-2-yl)methylene)hydrazinyl)-9-methyl-9H-purine [I-23]”, in series [1] (48 h incubation), the GI50 came out at 0.9 µM.
On to `N#Cc1ccccc1C=NNc1ncnc2c1ncn2C1O[C@H](CO)[C@@H](O)[C@H]1O` (stereo partly drawn) [I-14, 2-((2-(9-((3R,4S,5R)-3,4-dihydroxy-5-(hydroxymethyl)tetrahydrofuran-2-yl)-9H-purin-6-yl)hydrazono)methyl)benzonitrile], for which the GI50 in series [1] (setting [8]) is 0.7 µM; in series [2] (Homo sapiens, HeLa), 0.8 µM; in series [3] (setting [9]), 0.8 µM; in series [4] (setting [10]), 1.2 µM; in series [5] (setting [11]), 1.9 µM; in series [6] (setting [12]) it was under 1 µM.
